From patent US9951028B2, “Agricultural chemicals” (REDAG CROP PROTECTION LTD, priority 2013, dated 2018)

Key:
[1] = test system: white mustard Sinapsis alba; assay: Herbicidal efficacy screen, potter tower spray, necrosis assessed; format: in vivo
Method: (§1) Compounds 22, 23 and 24 were screened for herbicidal efficacy against target plants: garden cress, Lepidium sativum, common chickweed, Stellaria media, and white mustard […] alba Plants were obtained as seeds and were grown to the 2-4 true leaf stage. Plants were grown under laboratory conditions, individually in seed trays. Each plant (in an approximately 3 cm diameter plug) was then detached from the tray for spraying. The compounds were screened at a range of five concentrations, diluted in acetone and TweenTM. A carrier only control was also conducted. Treatments were applied directly onto the plants, using a potter tower, at a specified application rate. One plant of each species was sprayed using a potter tower. The 3 different types of plants were placed on a 10 cm diameter platform directly beneath the potter sprayer and sprayed simultaneously. The growth of the plants and any Phytotoxicity effects were then assessed at intervals over 21 days, according to EPPO guideline PP1/135. Five replicas were performed for each treatment, for each species. In the tables below C represents a percentage increase in necrosis relative to the control of 0.1-50; B represents a percentage inhibition of 50-80; and A represents a percentage inhibition of 80-100.

[2] = test system: garden cress, Lepidium sativum; assay: as above; format: in vivo
Method: as §1

[3] = 12.5 g/ha, day 1 post application
[4] = 12.5 g/ha, day 2 post application
[5] = 12.5 g/ha, day 3 post application
[6] = 12.5 g/ha, day 4 post application
[7] = 12.5 g/ha, day 5 post application
[8] = 12.5 g/ha, day 7 post application
[9] = 12.5 g/ha, day 10 post application
[10] = 25 g/ha, day 1 post application
[11] = 25 g/ha, day 2 post application
[12] = 25 g/ha, day 3 post application
[13] = 25 g/ha, day 4 post application
[14] = 25 g/ha, day 5 post application
[15] = 25 g/ha, day 7 post application
[16] = 25 g/ha, day 10 post application
[17] = 50 g/ha, day 1 post application
[18] = 50 g/ha, day 2 post application
[19] = 50 g/ha, day 3 post application

CC(C)N(C)S(=O)(=O)NCc1cc(-n2c(=O)cc(C(F)(F)F)n(C)c2=O)c(F)cc1Cl [Compound 23, 1-[4-Chloro-2-fluoro-5-[[(isopropyl(methyl)sulfamoyl)amino]methyl]phenyl]-3-methyl-2,6-dioxo-4-(trifluoromethyl)pyrimidine]
Average of necrosis [1, 3]: C (C represents a percentage increase in necrosis relative to the control of 0.1-50) | Average of necrosis [1, 4]: C (C represents a percentage increase in necrosis relative to the control of 0.1-50) | Average of necrosis [1, 5]: C (C represents a percentage increase in necrosis relative to the control of 0.1-50) | Average of necrosis [1, 6]: C (C represents a percentage increase in necrosis relative to the control of 0.1-50) | Average of necrosis [1, 7]: C (C represents a percentage increase in necrosis relative to the control of 0.1-50) | Average of necrosis [1, 8]: C (C represents a percentage increase in necrosis relative to the control of 0.1-50) | Average of necrosis [1, 9]: C (C represents a percentage increase in necrosis relative to the control of 0.1-50) | Average of necrosis [1, 10]: C (C represents a percentage increase in necrosis relative to the control of 0.1-50) | Average of necrosis [1, 11]: C (C represents a percentage increase in necrosis relative to the control of 0.1-50) | Average of necrosis [1, 12]: C (C represents a percentage increase in necrosis relative to the control of 0.1-50) | Average of necrosis [1, 13]: C (C represents a percentage increase in necrosis relative to the control of 0.1-50) | Average of necrosis [1, 14]: C (C represents a percentage increase in necrosis relative to the control of 0.1-50) | Average of necrosis [1, 15]: C (C represents a percentage increase in necrosis relative to the control of 0.1-50) | Average of necrosis [1, 16]: C (C represents a percentage increase in necrosis relative to the control of 0.1-50) | Average of necrosis [1, 17]: C (C represents a percentage increase in necrosis relative to the control of 0.1-50) | Average of necrosis [1, 18]: C (C represents a percentage increase in necrosis relative to the control of 0.1-50) | Average of necrosis [1, 19]: C (C represents a percentage increase in necrosis relative to the control of 0.1-50) | Average of necrosis ([1]; 50 g/ha, day 4 post application): C (C represents a percentage increase in necrosis relative to the control of 0.1-50) | Average of necrosis ([1]; 50 g/ha, day 5 post application): C (C represents a percentage increase in necrosis relative to the control of 0.1-50) | Average of necrosis ([1]; 50 g/ha, day 7 post application): C (C represents a percentage increase in necrosis relative to the control of 0.1-50) | Average of necrosis ([1]; 50 g/ha, day 10 post application): C (C represents a percentage increase in necrosis relative to the control of 0.1-50) | Average of necrosis ([1]; 100 g/ha, day 1 post application): C (C represents a percentage increase in necrosis relative to the control of 0.1-50) | Average of necrosis ([1]; 100 g/ha, day 2 post application): C (C represents a percentage increase in necrosis relative to the control of 0.1-50) | Average of necrosis ([1]; 100 g/ha, day 3 post application): C (C represents a percentage increase in necrosis relative to the control of 0.1-50) | Average of necrosis ([1]; 100 g/ha, day 4 post application): C (C represents a percentage increase in necrosis relative to the control of 0.1-50) | Average of necrosis ([1]; 100 g/ha, day 5 post application): C (C represents a percentage increase in necrosis relative to the control of 0.1-50) | Average of necrosis ([1]; 100 g/ha, day 7 post application): C (C represents a percentage increase in necrosis relative to the control of 0.1-50) | Average of necrosis ([1]; 100 g/ha, day 10 post application): C (C represents a percentage increase in necrosis relative to the control of 0.1-50) | Average of necrosis ([1]; 200 g/ha, day 1 post application): C (C represents a percentage increase in necrosis relative to the control of 0.1-50) | Average of necrosis ([1]; 200 g/ha, day 2 post application): C (C represents a percentage increase in necrosis relative to the control of 0.1-50) | Average of necrosis ([1]; 200 g/ha, day 3 post application): C (C represents a percentage increase in necrosis relative to the control of 0.1-50) | Average of necrosis ([1]; 200 g/ha, day 4 post application): C (C represents a percentage increase in necrosis relative to the control of 0.1-50) | Average of necrosis ([1]; 200 g/ha, day 5 post application): C (C represents a percentage increase in necrosis relative to the control of 0.1-50) | Average of necrosis ([1]; 200 g/ha, day 7 post application): C (C represents a percentage increase in necrosis relative to the control of 0.1-50) | Average of necrosis ([1]; 200 g/ha, day 10 post application): C (C represents a percentage increase in necrosis relative to the control of 0.1-50) | Average of necrosis [2, 3]: C (C represents a percentage increase in necrosis relative to the control of 0.1-50) | Average of necrosis [2, 4]: C (C represents a percentage increase in necrosis relative to the control of 0.1-50) | Average of necrosis [2, 5]: C (C represents a percentage increase in necrosis relative to the control of 0.1-50) | Average of necrosis [2, 6]: C (C represents a percentage increase in necrosis relative to the control of 0.1-50) | Average of necrosis [2, 7]: C (C represents a percentage increase in necrosis relative to the control of 0.1-50) | Average of necrosis [2, 8]: C (C represents a percentage increase in necrosis relative to the control of 0.1-50) | Average of necrosis [2, 9]: C (C represents a percentage increase in necrosis relative to the control of 0.1-50) | Average of necrosis [2, 10]: C (C represents a percentage increase in necrosis relative to the control of 0.1-50) | Average of necrosis [2, 11]: C (C represents a percentage increase in necrosis relative to the control of 0.1-50) | Average of necrosis [2, 12]: C (C represents a percentage increase in necrosis relative to the control of 0.1-50) | Average of necrosis [2, 13]: C (C represents a percentage increase in necrosis relative to the control of 0.1-50) | Average of necrosis [2, 14]: C (C represents a percentage increase in necrosis relative to the control of 0.1-50) | Average of necrosis [2, 15]: C (C represents a percentage increase in necrosis relative to the control of 0.1-50) | Average of necrosis [2, 16]: B (B represents a percentage inhibition of 50-80) | Average of necrosis [2, 17]: C (C represents a percentage increase in necrosis relative to the control of 0.1-50) | Average of necrosis [2, 18]: C (C represents a percentage increase in necrosis relative to the control of 0.1-50) | Average of necrosis [2, 19]: C (C represents a percentage increase in necrosis relative to the control of 0.1-50)
